According to patent US5015661A, “Chromanes and their pharmaceutical compositions and methods” (Hoffmann-La Roche Inc., priority 1989, dated 1991):

Molecular target: T1, Δ^5 -lipoxygenase from rat basophilic leukemia (RBL-1) cells (Rattus norvegicus, UniProt P12527)
T1 construct: endogenous in cells; host or cells: RBL-1 rat basophilic leukemia cells (ATCC CRL 1378); 113,000×g supernatant (cytosolic fraction)
T1 sequence (P12527 1-673): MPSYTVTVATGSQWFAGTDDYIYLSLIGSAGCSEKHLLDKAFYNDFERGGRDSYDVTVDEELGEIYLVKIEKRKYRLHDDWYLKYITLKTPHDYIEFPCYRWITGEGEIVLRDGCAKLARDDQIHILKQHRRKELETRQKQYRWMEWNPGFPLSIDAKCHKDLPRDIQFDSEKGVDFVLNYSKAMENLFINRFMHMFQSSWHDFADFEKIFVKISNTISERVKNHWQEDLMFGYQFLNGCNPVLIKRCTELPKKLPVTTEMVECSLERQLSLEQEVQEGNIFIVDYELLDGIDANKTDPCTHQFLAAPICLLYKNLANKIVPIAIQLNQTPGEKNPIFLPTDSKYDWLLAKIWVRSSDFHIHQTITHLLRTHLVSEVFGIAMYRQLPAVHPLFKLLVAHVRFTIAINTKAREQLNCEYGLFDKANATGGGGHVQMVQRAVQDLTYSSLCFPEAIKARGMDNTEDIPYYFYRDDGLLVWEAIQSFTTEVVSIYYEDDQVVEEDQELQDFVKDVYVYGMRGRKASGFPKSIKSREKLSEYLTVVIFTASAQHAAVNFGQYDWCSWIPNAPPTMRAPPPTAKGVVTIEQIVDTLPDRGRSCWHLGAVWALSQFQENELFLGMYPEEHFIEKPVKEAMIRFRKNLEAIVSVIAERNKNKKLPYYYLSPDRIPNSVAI
Experiment: In vitro test for Δ^5 -lipoxygenase inhibitors (5-LO), RBL-1 cell enzyme, 5-HETE radioimmunoassay
Assay type: biochemical
Conditions: RBL-1 5-LO; 10 min preincubation; 8.25 μM arachidonic acid, 10 min at 37° C.; 5-HETE formation; read-out: 5-LO IC-50
Outline: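 Cytosolic (113,000×g supernatant) 5-LO from RBL-1 cells was preincubated with compound 10 min at 30° C, then reacted 10 min at 37° C with 8.25 μM arachidonic acid in Tris-HCl pH 7.2 with glutathione, indomethacin, CaCl2 and ATP. The reaction was stopped with citric acid (pH 3.5), and 5-HETE formed was quantified by radioimmunoassay.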

Row | IC50 | Compound
1 | 80 nM | COC(=O)c1cc(CCC2(C)CCc3c(C)c(O)c(C)c(C)c3O2)ccc1O (racemic) [Example 63, rac-5-[2-(3,4-Dihydro-6-hydroxy-2,5,7,8-tetramethyl-2H-1-benzopyran-2-yl)ethyl]-2-hydroxybenzoic acid methyl ester]
2 | 160 nM | COc1cc(C=NO)cc(C#CC2(C)CCc3c(C)c(O)c(C)c(C)c3O2)c1O (racemic) [Example 30, rac-3-[(3,4-Dihydro-6-hydroxy-2,5,7,8-tetramethyl-2H-1-benzopyran-2yl)ethynyl]-4-hydroxy-5-methoxybenzaldehydeoxime]
3 | 1000 nM | Cc1c(C)c2c(c(C)c1O)CCC(C)(C#Cc1cncc3ccccc13)O2 (racemic) [Example 34, rac-3,4-Dihydro-2-[(4-isoquinolinyl)ethynyl]-2,5,7,8-tetramethyl-2H-1-benzopyran-6-ol]
4 | 24 nM | Cc1c(C)c2c(c(C)c1O)CCC(C)(C#Cc1ccc(OCc3ccccc3)c(O)c1)O2 (racemic) [Example 43, rac-3,4-Dihydro-2-{[3-hydroxy-4-(phenylmethoxY)phenyl]-ethynyl}-2,5,7,8-tetramethyl-2H-1-benzopyran-6-ol]
5 | 120 nM | Cc1c(C)c2c(c(C)c1O)CCC(C)(C#Cc1ccc(F)c(F)c1)O2 (racemic) [Example 36, rac-2-[(3,4-Difluorophenyl)ethynyl]-3,4-dihydro-2,5,7,8-tetramethyl-2H-1-benzopyran-6-ol]
6 | 40 nM | Cc1c(C)c2c(c(C)c1O)CCC(C)(C#Cc1ccccc1)O2 (racemic) [Example 1, rac-3,4-Dihydro-2,5,7,8-tetramethyl-2-(phenylethynyl)-2H-1-benzopyran-6-ol]
7 | 120 nM | COc1cccc(CCC2(C)CCc3c(C)c(O)c(C)c(C)c3O2)c1 (racemic) [Example 62, rac-3,4-Dihydro-2-[2-(3-methoxyphenyl)ethyl]-2,5,7,8-tetramethyl-2H-1-benzopyran-6-ol]
8 | 30 nM | Cc1c(C)c2c(c(C)c1O)CCC(C)(CCc1cccnc1)O2 (racemic) [Example 59, rac-3,4-Dihydro-2,5,7,8-tetramethyl-2-[2-(3-pyridinyl)ethyl]-2H-1-benzopyran-6-ol]
9 | 12 nM | Cc1c(C)c2c(c(C)c1O)CCC(C)(c1cc3ccccc3o1)O2 (racemic) [Example 50 (CH; H, H, H), rac-2-(2-Benzofuranyl)-3,4-dihydro-2,5,7,8-tetramethyl-2H-1-benzopyran-6-ol]
10 | 130 nM | COc1cc(C=O)cc(C#CC2(C)CCc3c(C)c(O)c(C)c(C)c3O2)c1O (racemic) [Example 28, rac-3-[(3,4-Dihydro-6-hydroxy-2,5,7,8-tetramethyl-2H-1-benzopyran-2-yl)ethynyl]-4-hydroxy-5-methoxybenzaldehyde]
11 | 160 nM | Cc1c(C)c2c(c(C)c1O)CCC(C)(C#Cc1ccc(-c3cccnc3)cc1)O2 (racemic) [Example 24, rac-3,4-Dihydro-2,5,7,8-tetramethyl-2-{[4-(3-pyridinyl)-phenyl]ethynyl}-2H-1-benzopyran-6-ol]
12 | 23 nM | Cc1c(C)c2c(c(C)c1O)CCC(C)(C#Cc1cccs1)O2 (racemic) [Example 4, rac-3,4-Dihydro-2,5,7,8-tetramethyl-2-[(2-thienyl)ethynyl]-2H-1-benzopyran-6-ol]
13 | 3 nM | Cc1ccc2oc(C3(C)CCc4c(C)c(O)c(C)c(C)c4O3)cc2n1 (racemic) [Example 51, rac-3,4-Dihydro-2-(5-methylfuro[3,2[b]pyridin-2-yl)-2,5,7,8-tetramethyl-2H-1-benzopyran-6ol]
14 | 56 nM | COc1ccc(CCC2(C)CCc3c(C)c(O)c(C)c(C)c3O2)cc1OC(C)=O (racemic) [Example 60, rac-2-{2-[3-(Acetyloxy)-4-methoxyphenyl]ethyl}-3,4-dihydro-2,5,7,8-tetramethyl-2H-1-benzopyran-6ol]
15 | 160 nM | Cc1c(C)c2c(c(C)c1O)CCC(C)(C#Cc1cnc3ccccc3c1)O2 (racemic) [Example 33, rac-3,4-Dihydro-2,5,7,8-tetramethyl-2-(3-quinolinylethynyl)-2H-1-benzopyran-6-ol]
16 | 17 nM | Cc1c(C)c2c(c(C)c1O)CC[C@@](C)(C#Cc1cccs1)O2 [Example 13, (S)-3,4-Dihydro-2,5,7,8-tetramethyl-2-[(2-thienyl)ethynyl]-2H-1-benzopyran-6-ol]
17 | 170 nM | COc1cccc(C#CC2(C)CCc3c(C)c(O)c(C)c(C)c3O2)c1 (racemic) [Example 22, rac-3,4-Dihydro-2-(3-methoxyphenyl)ethynyl)-2,5,7,8-tetra-methyl-2H-1-benzopyran-6-ol]
18 | 17 nM | CCCc1c(O)c(C(C)=O)cc2cc(C3(C)CCc4c(C)c(O)c(C)c(C)c4O3)oc12 (racemic) [Example 53, rac-1-2-(3,4-Dihydro-6-hydroxy-2,5,7,8-tetramethyl-2H-1-benzopyran-2-yl)-6-hydroxy-7-propylbenzofuran-5-yl]ethanone]
